From ChEMBL document CHEMBL1201862, “PubChem BioAssay data set” (2004)
Calls of active or inactive are those of the source.

Assays:
[1] = target: T1, Mucolipin-3 (Homo sapiens, UniProt Q8TDD5); assay: Dose response cell-based high-throughput screening assay for agonists of the transient receptor potential channel ML3 (TRPML3). [Related pubchem assays: 1526, 1424, 1448 ]; assay type: functional
T1 sequence (Q8TDD5 whole entry): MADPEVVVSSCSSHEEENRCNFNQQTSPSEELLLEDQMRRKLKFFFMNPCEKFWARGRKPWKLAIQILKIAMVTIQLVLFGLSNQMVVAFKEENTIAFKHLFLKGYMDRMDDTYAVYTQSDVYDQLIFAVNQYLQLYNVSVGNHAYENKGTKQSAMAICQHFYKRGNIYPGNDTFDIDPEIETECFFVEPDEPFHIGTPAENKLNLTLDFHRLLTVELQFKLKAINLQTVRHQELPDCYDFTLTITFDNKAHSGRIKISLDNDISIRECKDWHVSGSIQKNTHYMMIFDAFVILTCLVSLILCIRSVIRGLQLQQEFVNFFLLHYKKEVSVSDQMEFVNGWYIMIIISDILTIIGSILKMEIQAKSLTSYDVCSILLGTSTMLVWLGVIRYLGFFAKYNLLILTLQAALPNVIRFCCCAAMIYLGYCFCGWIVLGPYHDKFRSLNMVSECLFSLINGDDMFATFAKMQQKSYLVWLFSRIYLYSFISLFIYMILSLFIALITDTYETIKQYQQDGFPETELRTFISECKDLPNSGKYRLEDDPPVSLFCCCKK

[2] = target: Ion channel NompC (Danio rerio, UniProt Q7T1G6); assay: Fluorescence counterscreen assay for TRPML3 agonists: dose response cell-based high-throughput screening assay to identify agonists of the transient receptor potential channel N1 (TRPN1). [Related pubchem assays: 1526, 1424, 1448 ]; assay type: functional
[3] = target: T2, Calpain-2 catalytic subunit (Sus scrofa, UniProt P43367); assay: pig calpain II inhibitor potency, dose response, biochemical, fluorogenic peptide substrate (AID 1420); assay type: functional
T2 sequence (P43367 whole entry): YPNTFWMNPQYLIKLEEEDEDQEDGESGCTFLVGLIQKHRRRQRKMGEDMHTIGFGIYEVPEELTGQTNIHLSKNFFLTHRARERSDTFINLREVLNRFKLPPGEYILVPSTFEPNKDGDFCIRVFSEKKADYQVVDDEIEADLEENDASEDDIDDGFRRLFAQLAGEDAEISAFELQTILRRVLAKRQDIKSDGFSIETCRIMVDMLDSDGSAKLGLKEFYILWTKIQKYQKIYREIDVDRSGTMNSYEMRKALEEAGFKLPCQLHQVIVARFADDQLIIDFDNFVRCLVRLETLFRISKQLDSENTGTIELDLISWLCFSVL

[4] = A cytotoxicity screen of small molecule inhibitors of the PhoP region in Salmonella typhi identified in the primary screen. [Related pubchem assays: 1850, 1864, 1985 ]; assay type: functional
[5] = target: T3, Aminopeptidase N (Plasmodium falciparum FcB1/Columbia, UniProt O96935); assay: P. falciparum M1AAP inhibitors, biochemical, fluorogenic H-Leu-NHMec substrate, 1536-well (AID 1445); design: species or system Plasmodium falciparum 3D7, 3D7
T3 sequence (O96935 whole entry): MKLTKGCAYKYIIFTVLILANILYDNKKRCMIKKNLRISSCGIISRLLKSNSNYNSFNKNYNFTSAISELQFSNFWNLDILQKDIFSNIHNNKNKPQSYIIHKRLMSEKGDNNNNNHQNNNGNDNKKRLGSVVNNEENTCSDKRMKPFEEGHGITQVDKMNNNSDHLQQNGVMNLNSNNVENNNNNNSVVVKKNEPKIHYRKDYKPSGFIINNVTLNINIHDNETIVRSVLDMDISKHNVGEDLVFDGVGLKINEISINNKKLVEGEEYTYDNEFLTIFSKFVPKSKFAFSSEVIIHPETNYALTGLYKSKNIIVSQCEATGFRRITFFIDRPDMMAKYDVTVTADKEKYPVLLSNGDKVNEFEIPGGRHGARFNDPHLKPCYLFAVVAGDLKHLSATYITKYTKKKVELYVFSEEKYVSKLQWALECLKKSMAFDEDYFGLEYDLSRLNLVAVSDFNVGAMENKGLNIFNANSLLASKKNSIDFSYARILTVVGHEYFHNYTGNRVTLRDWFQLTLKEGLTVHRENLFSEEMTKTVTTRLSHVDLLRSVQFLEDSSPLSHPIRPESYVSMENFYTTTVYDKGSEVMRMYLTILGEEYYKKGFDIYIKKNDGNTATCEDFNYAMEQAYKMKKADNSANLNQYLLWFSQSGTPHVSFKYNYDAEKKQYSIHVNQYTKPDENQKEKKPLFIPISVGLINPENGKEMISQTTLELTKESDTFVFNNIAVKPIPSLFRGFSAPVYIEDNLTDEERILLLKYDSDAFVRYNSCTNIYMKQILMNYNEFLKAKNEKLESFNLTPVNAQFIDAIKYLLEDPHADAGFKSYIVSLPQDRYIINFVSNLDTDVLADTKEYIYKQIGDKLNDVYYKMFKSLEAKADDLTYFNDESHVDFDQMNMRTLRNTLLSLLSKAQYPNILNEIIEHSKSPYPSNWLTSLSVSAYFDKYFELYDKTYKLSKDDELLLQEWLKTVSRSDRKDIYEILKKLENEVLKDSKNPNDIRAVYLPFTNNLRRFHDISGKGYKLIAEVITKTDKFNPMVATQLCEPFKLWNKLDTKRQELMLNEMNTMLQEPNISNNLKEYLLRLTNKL

[6] = Luminescence Cell-Based Dose Response HTS to Identify Inhibitors of 5'UTR Stem-Loop Driven Prion Protein mRNA Translation in H4 Neuroglioblastoma Cells. [Related pubchem assays: 1827 (Project Summary), 1813 (Primary HTS)]; assay type: functional
[7] = target: T4, Protein RecA (Mycobacterium tuberculosis, UniProt P9WHJ3); assay: Fluorescence Cell-Free Homogeneous Dose Retest to Identify Inhibitors of RecA-Intein Splicing Activity. [Related pubchem assays (depositor defined):AID2097, AID2223, AID489010, AID492950]; assay type: functional
T4 sequence (P9WHJ3 whole entry): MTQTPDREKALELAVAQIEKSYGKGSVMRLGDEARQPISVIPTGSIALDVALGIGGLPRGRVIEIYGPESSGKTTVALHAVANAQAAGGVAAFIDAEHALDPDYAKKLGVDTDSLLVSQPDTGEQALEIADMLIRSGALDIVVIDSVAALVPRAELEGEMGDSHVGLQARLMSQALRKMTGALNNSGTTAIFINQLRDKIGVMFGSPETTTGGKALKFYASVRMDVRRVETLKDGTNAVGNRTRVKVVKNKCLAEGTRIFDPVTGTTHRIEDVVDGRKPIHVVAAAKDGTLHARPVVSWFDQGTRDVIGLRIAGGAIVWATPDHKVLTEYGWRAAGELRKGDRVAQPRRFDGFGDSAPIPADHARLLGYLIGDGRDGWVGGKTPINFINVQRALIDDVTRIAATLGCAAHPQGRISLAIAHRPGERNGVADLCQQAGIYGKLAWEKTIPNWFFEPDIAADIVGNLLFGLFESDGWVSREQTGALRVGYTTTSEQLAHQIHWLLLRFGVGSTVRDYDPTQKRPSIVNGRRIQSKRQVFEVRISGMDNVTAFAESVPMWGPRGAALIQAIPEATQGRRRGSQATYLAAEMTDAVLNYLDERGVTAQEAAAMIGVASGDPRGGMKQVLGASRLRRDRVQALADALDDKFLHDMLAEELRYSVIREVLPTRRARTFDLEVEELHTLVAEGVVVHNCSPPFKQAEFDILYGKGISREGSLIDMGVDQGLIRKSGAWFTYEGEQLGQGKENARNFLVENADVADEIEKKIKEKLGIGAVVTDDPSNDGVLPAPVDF

[8] = inhibitors of SNCA 5'UTR-driven reporter translation, confirmation, H4 neuroglioma cells, luminescence (AID 1988); assay type: functional, cell-based
[9] = inhibitors of firefly luciferase expression or activity, dose response, H4 neuroglioma cells, luminescence (AID 1990); assay type: functional, cell-based
[10] = target: T5, Replicative DNA helicase DnaB (Mycobacterium tuberculosis, UniProt P9WMR3); assay: DnaB intein splicing inhibitors, dose response, biochemical, cell-free fluorescence (AID 449749); assay type: functional
T5 sequence (P9WMR3 whole entry): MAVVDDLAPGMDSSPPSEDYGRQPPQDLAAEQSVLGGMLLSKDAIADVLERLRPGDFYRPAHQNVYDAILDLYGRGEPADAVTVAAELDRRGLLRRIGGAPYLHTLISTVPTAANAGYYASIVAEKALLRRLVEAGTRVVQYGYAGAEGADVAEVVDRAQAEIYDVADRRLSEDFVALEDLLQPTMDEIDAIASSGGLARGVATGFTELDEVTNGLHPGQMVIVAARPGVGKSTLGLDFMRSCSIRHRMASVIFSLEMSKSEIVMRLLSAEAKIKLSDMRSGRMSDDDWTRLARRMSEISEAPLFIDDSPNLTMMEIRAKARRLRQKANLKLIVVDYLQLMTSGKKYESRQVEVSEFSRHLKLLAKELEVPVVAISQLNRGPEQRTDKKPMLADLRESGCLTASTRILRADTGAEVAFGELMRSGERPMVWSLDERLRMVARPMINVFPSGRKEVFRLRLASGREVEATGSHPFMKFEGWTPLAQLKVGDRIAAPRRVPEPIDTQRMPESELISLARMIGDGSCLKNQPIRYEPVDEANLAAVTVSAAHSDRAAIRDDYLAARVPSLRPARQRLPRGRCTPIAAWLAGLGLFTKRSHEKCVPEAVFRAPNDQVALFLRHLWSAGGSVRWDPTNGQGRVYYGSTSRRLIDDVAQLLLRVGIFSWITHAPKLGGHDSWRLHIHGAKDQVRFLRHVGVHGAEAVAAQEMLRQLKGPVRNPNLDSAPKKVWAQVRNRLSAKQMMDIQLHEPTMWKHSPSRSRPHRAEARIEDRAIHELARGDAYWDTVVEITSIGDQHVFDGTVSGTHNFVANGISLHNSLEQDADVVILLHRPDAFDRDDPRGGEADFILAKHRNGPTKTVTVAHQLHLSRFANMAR

[11] = target: T6, Hexokinase HKDC1 (Homo sapiens, UniProt Q2TB90); assay: HKDC1 hexokinase inhibitors, dose response, biochemical, W721R variant (AID 504729); assay type: functional
T6 sequence (Q2TB90 whole entry): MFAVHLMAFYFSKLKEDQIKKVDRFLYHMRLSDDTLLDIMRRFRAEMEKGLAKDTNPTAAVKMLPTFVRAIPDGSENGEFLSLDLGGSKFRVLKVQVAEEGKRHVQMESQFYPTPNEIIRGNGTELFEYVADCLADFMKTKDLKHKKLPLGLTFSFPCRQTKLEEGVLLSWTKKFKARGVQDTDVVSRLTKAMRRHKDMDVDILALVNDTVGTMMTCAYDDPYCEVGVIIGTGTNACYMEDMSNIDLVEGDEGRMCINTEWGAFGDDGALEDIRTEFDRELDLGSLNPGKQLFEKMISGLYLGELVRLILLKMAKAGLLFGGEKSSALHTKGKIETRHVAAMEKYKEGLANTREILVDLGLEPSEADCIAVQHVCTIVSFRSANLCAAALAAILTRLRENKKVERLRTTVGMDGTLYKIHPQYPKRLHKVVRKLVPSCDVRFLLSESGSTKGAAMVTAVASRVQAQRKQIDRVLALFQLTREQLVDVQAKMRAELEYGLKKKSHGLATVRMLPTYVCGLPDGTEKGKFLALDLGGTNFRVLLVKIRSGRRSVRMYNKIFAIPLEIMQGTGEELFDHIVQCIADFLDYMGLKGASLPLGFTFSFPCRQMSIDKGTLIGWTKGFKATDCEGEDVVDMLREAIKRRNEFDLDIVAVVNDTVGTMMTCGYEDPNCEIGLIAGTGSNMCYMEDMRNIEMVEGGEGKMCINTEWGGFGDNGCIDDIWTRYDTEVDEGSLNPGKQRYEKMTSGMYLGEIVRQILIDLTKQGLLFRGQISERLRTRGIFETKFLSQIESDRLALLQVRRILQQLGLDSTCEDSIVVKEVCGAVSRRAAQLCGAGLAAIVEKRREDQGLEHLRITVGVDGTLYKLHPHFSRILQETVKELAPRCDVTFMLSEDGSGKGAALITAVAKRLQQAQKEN

[12] = target: Large T antigen (Simian virus 40, UniProt P03070); assay type: functional, Betapolyomavirus macacae;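 further: Confirmatory-stage PubChem screen for compounds that inhibit SV40 T antigen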
[13] = target: Cytochrome P450 2D6 (Homo sapiens, UniProt P10635); assay: qHTS Assay for Inhibitors and Substrates of Cytochrome P450 2D6. [Related pubchem assays: 410 ]; assay type: ADME; details: read-out: Potency
[14] = target: Cytochrome P450 3A4 (Homo sapiens, UniProt P08684); details: Potency;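 further: confirmatory qHTS run detecting inhibitors and substrates of CYP3A4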
Sequence of Cytochrome P450 3A4 (P08684 whole entry): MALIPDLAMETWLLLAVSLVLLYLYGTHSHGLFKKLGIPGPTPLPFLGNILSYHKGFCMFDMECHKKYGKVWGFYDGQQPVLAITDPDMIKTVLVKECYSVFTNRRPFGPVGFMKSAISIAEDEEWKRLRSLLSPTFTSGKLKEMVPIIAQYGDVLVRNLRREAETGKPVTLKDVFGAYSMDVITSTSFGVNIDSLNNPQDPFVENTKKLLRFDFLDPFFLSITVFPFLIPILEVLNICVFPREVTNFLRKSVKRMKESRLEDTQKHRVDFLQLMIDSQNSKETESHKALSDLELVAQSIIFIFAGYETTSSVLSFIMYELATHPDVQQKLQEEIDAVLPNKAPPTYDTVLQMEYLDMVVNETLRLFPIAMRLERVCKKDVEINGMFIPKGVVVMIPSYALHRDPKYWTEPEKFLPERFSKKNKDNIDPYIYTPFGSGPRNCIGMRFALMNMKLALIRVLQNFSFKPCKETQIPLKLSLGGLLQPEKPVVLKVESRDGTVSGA

Sequence of Ion channel NompC (Q7T1G6 whole entry): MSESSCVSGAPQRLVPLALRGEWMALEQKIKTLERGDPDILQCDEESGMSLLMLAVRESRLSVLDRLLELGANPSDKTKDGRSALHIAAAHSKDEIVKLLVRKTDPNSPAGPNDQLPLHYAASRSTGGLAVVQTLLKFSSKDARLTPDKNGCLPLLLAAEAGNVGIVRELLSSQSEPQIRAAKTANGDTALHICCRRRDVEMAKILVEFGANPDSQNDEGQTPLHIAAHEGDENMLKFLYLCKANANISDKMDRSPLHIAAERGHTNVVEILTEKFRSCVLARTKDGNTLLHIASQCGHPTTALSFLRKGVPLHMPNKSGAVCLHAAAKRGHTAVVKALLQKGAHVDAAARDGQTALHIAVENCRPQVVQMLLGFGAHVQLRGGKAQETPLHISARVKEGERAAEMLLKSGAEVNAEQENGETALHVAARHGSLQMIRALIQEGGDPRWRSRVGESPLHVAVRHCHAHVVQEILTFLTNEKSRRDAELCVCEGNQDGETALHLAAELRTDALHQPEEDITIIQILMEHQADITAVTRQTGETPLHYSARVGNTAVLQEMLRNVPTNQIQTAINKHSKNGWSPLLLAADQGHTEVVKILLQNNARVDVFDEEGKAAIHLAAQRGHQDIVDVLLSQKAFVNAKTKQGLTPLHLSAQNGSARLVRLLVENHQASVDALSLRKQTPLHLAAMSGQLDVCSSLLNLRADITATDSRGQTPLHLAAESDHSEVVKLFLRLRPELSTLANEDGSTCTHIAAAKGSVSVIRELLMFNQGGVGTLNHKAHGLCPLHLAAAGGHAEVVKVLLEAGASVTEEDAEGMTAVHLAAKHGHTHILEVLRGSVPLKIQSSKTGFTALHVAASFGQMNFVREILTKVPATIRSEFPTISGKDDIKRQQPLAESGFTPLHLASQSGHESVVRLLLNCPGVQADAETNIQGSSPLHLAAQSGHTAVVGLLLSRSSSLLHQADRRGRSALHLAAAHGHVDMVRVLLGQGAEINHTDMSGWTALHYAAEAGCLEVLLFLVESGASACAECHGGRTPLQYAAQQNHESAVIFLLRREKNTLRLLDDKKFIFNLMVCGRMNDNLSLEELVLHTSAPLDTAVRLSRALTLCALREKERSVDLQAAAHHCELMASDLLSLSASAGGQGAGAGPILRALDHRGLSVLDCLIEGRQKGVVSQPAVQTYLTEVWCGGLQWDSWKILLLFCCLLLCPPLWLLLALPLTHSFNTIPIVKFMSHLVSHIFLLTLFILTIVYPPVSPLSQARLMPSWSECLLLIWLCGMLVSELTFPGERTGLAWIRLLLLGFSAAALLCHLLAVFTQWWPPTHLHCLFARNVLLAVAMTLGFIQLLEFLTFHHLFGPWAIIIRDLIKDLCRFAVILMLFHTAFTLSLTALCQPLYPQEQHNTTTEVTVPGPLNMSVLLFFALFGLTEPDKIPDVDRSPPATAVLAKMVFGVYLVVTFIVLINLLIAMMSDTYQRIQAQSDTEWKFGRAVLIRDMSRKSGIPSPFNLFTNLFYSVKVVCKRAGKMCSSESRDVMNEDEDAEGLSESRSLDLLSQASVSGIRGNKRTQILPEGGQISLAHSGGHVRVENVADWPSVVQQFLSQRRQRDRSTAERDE
Sequence of Large T antigen (P03070 whole entry): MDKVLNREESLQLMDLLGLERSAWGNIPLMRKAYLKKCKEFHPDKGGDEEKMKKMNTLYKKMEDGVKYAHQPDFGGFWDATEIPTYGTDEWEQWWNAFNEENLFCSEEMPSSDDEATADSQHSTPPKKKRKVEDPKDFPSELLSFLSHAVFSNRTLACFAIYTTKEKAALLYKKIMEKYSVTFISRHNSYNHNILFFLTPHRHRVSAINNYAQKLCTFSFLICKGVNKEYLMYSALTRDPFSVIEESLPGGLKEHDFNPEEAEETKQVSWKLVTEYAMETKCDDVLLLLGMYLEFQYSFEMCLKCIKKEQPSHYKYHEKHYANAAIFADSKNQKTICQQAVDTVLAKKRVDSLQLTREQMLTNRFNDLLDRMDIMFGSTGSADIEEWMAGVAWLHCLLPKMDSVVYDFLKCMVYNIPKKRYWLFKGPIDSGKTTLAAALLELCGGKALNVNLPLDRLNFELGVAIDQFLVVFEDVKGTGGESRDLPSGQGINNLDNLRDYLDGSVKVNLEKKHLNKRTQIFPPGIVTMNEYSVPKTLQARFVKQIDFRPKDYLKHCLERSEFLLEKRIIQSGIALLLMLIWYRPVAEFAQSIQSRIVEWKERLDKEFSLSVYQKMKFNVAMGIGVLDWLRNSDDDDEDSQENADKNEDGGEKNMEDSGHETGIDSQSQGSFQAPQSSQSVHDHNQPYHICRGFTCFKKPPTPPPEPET
Sequence of Cytochrome P450 2D6 (P10635 whole entry): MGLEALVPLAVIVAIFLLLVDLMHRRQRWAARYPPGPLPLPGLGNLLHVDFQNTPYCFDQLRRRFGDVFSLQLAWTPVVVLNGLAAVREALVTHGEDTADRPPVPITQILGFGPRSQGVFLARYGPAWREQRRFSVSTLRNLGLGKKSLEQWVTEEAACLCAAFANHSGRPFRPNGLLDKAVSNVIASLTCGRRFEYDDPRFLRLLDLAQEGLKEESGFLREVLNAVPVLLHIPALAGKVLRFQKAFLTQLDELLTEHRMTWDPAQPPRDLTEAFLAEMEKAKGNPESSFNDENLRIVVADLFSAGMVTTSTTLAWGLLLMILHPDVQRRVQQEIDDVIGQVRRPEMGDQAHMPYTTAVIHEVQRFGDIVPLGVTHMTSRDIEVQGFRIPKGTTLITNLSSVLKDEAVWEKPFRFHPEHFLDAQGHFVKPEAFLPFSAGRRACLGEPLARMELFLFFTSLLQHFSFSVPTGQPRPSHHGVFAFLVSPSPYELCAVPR

COc1ccc2c(c1)C(C)CC(C)(C)N2C(=O)CSc1nc2ccccc2s1 (centres undefined)
EC50 [1]: 2.63 µM (active) | EC50 [2]: > 29.9 µM (not active) | IC50 [3]: 3.08 µM (not active)

COc1ccccc1C(=O)Nc1nnc(-c2ccc(Cl)cc2)o1
EC50 [4]: > 50 µM (active)

CCOc1cc(/C=C(/C#N)C(=O)Nc2ccc(O)cc2)cc(Br)c1O
IC50 [5]: 78.7 µM (active) | EC50 [6]: 9.51 µM (active) | EC50 [7]: 3.28 µM (active) | EC50 [8]: 7.65 µM (active) | EC50 [9]: 9.71 µM (inconclusive) | AC50 [10]: > 380 µM (inactive)

O=C1c2n[nH]c(-c3ccccc3O)c2C(c2ccc(F)cc2)N1CC1CCCO1 (centres undefined)
EC50 [4]: > 50 µM (active)

COc1ncnc2c1oc1nc(C(C)C)c3c(c12)CC(C)(C)OC3
IC50 [11]: 11.7 µM (active)

Cc1cccc(OCCSc2nnc(-c3ccoc3C)n2C)c1
EC50 [4]: > 50 µM (active)

COc1ccc(OC)c(C(c2c(O)oc3ccccc3c2=O)c2c(C)n(C)n(-c3ccccc3)c2=O)c1 (centres undefined)
IC50 [5]: 71 µM (active)

COc1cc(/C=C2\SC(=S)N(C(C(=O)O)c3ccccc3)C2=O)ccc1O (centres undefined)
IC50 [5]: 38.1 µM (active) | IC50 [12]: 11.6 µM (active)

CC(C)c1nc2oc3c(O)ncnc3c2c2c1COC(C)(C)C2
IC50 [11]: 8.22 µM (active)

OCC1OC(c2ccc3c(c2)OCO3)C=CC1Oc1ccc(C2CCCC2)cc1 (centres undefined)
AC50 [13]: 3.16 µM (inconclusive) | AC50 [14]: 2 µM (inconclusive)
